Laboratory results taken from Sander's compilation of Henry's law constants (doi:10.1016/s1387-3806(02)00927-2).

Key:
Settings in all cases: reference: Karl et al. (2003)
[1] = Henry solubility constant Hcp at 298.15 K (mol/(m3 Pa))
[2] = Henry solubility constant Hcp at 295 K (mol/(m3 Pa))
[3] = Henry solubility constant Hcp at 291 K (mol/(m3 Pa))

SMILES	Henry solubility constant Hcp [1]	Henry solubility constant Hcp at 295 K [2]	other results
CCc1cccc(O)c1 [1-hydroxy-3-ethylbenzene]	4.9		
Cc1ccccc1 [methylbenzene]		0.0014	
Cc1cc(C)cc(C)c1 [1,3,5-trimethylbenzene]		0.002	
CC1=CC=C(C(C)C)CC1 [1-methyl-4-(1-methylethyl)-1,3-cyclohexadiene]		0.00045	
C=CC(=C)C [2-methyl-1,3-butadiene]			Henry solubility constant Hcp at 291 K [3]: 0.00029
Cc1cccc(C)c1 [1,3-dimethylbenzene]		0.0013	
CCCc1ccccc1 [propylbenzene]		0.0015	
c1ccccc1 [benzene]		0.0018	

Continued, in another order:

Henry solubility constant Hcp [1]	SMILES	Henry solubility constant Hcp at 295 K [2]	other results
0.015	CCCCCCOC(C)=O [hexyl ethanoate]		
0.14	CCC/C=C/C=O [(E)-2-hexenal]		
0.033	CC/C=C/CCOC(C)=O [(E)-3-hexenyl ethanoate]		
0.17	COc1nccnc1CC(C)C [2-isobutyl-3-methoxypyrazine]		
0.031	CC/C=C\CCOC(C)=O [(Z)-3-hexenyl ethanoate]		
